From the supplement of paper PMC10307832

Experiments:
Assay in all cases: relative viability (nuclei count vs DMSO), 5 days (fraction); higher = more cells survive
[1] = tested on: LOU-NH91
Procedure, shortened: (§1)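 After 5 days of treatment, lung cancer cells in 1536-well plates were fixed and stained in a single step (final 0.05% Triton X-100, 1% formaldehyde, 1 ug/ml Hoechst) and their nuclei counted on 4× images. Treatment had been applied by pin tool the day after seeding as one drug alone or as a fixed anchor-drug dose with five library-drug doses (not always all listed) in √10 steps. Relative viability is the nuclei count of treated wells divided by that of vehicle wells, and values are medians of duplicate plates.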

[2] = tested on: LCLC-97TM1
Procedure, shortened: as §1

[3] = tested on: HCC-366
Procedure, shortened: as §1

[4] = tested on: LCLC-103H
Procedure, shortened: as §1

[5] = tested on: NCI-H1650
Procedure, shortened: as §1

[6] = tested on: A-427
Procedure, shortened: as §1

[7] = tested on: RERF-LC-KJ
Procedure, shortened: as §1

[8] = tested on: COR-L23
Procedure, shortened: as §1

[9] = tested on: HARA
Procedure, shortened: as §1

[10] = tested on: NCI-H2126
Procedure, shortened: as §1

[11] = tested on: NCI-H2009
Procedure, shortened: as §1

Q: With `O=c1[nH]c2ccccc2n1C1CCN(CCCC(c2ccc(F)cc2)c2ccc(F)cc2)CC1` [Pimozide] + Cc1nc(Nc2ncc(C(=O)Nc3c(C)cccc3Cl)s2)cc(N2CCN(CCO)CC2)n1 [Dasatinib] (partner 0.075 µM) as the molecule, how does the relative viability ([1]; first compound 0.08 µM) read?
A: The relative viability was 0.44.

Q: What about the relative viability ([1]; first compound 0.253 µM) of the same molecule?
A: Its relative viability is 0.564.

Q: What about the relative viability ([1]; first compound 0.8 µM) of the same molecule?
A: The relative viability was 0.537.

Q: And the relative viability ([1]; first compound 2.53 µM)?
A: Its relative viability is 0.572.

Q: What about the relative viability ([1]; first compound 8 µM) of the same molecule?
A: Its relative viability is 0.579.

Q: And the relative viability ([2]; first compound 0.08 µM)?
A: Its relative viability is 0.94.

Q: And the relative viability ([2]; first compound 0.253 µM)?
A: The relative viability was 0.811.

Q: What about the relative viability ([2]; first compound 0.8 µM) of the same molecule?
A: The relative viability was 0.797.

Q: And the relative viability ([2]; first compound 2.53 µM)?
A: The relative viability was 0.818.

Q: And the relative viability ([2]; first compound 8 µM)?
A: The relative viability was 0.626.

Q: What about the relative viability ([3]; first compound 0.08 µM) of the same molecule?
A: The relative viability was 0.613.

Q: What about the relative viability ([3]; first compound 0.253 µM) of the same molecule?
A: Its relative viability is 0.644.

Q: And the relative viability ([3]; first compound 0.8 µM)?
A: The relative viability was 0.625.

Q: And the relative viability ([3]; first compound 2.53 µM)?
A: Its relative viability is 0.615.

Q: And the relative viability ([3]; first compound 8 µM)?
A: Its relative viability is 0.714.

Q: What about the relative viability ([4]; first compound 0.08 µM) of the same molecule?
A: The relative viability was 0.531.

Q: And the relative viability ([4]; first compound 0.253 µM)?
A: Its relative viability is 0.373.

Q: What about the relative viability ([4]; first compound 0.8 µM) of the same molecule?
A: Its relative viability is 0.371.

Q: What about the relative viability ([4]; first compound 2.53 µM) of the same molecule?
A: The relative viability was 0.518.

Q: And the relative viability ([4]; first compound 8 µM)?
A: The relative viability was 0.549.

Q: And the relative viability ([5]; first compound 0.08 µM)?
A: Its relative viability is 0.274.

Q: What about the relative viability ([5]; first compound 0.253 µM) of the same molecule?
A: The relative viability was 0.282.

Q: And the relative viability ([5]; first compound 0.8 µM)?
A: The relative viability was 0.337.

Q: And the relative viability ([5]; first compound 2.53 µM)?
A: Its relative viability is 0.298.

Q: What about the relative viability ([5]; first compound 8 µM) of the same molecule?
A: The relative viability was 0.239.

Q: What about the relative viability ([6]; first compound 0.08 µM) of the same molecule?
A: The relative viability was 0.697.

Q: What about the relative viability ([6]; first compound 0.253 µM) of the same molecule?
A: Its relative viability is 0.701.

Q: What about the relative viability ([6]; first compound 0.8 µM) of the same molecule?
A: The relative viability was 0.681.

Q: And the relative viability ([6]; first compound 2.53 µM)?
A: Its relative viability is 0.654.

Q: And the relative viability ([6]; first compound 8 µM)?
A: The relative viability was 0.665.

Q: What about the relative viability ([7]; first compound 0.08 µM) of the same molecule?
A: The relative viability was 0.775.

Q: What about the relative viability ([7]; first compound 0.253 µM) of the same molecule?
A: Its relative viability is 0.611.

Q: What about the relative viability ([7]; first compound 0.8 µM) of the same molecule?
A: Its relative viability is 0.696.

Q: What about the relative viability ([7]; first compound 2.53 µM) of the same molecule?
A: The relative viability was 0.66.

Q: And the relative viability ([7]; first compound 8 µM)?
A: Its relative viability is 0.501.

Q: And the relative viability ([8]; first compound 0.08 µM)?
A: Its relative viability is 0.58.

Q: And the relative viability ([8]; first compound 0.253 µM)?
A: Its relative viability is 0.468.

Q: What about the relative viability ([8]; first compound 0.8 µM) of the same molecule?
A: The relative viability was 0.53.

Q: And the relative viability ([8]; first compound 2.53 µM)?
A: The relative viability was 0.49.

Q: And the relative viability ([8]; first compound 8 µM)?
A: The relative viability was 0.455.

Q: What about the relative viability ([9]; first compound 0.253 µM) of the same molecule?
A: The relative viability was 0.262.

Q: What about the relative viability ([9]; first compound 0.8 µM) of the same molecule?
A: The relative viability was 0.275.

Q: What about the relative viability ([9]; first compound 2.53 µM) of the same molecule?
A: The relative viability was 0.247.

Q: What about the relative viability ([9]; first compound 8 µM) of the same molecule?
A: The relative viability was 0.304.

Q: And the relative viability ([10]; first compound 0.08 µM)?
A: Its relative viability is 0.687.

Q: What about the relative viability ([10]; first compound 0.253 µM) of the same molecule?
A: The relative viability was 0.548.

Q: And the relative viability ([10]; first compound 0.8 µM)?
A: Its relative viability is 0.568.

Q: And the relative viability ([10]; first compound 2.53 µM)?
A: The relative viability was 0.607.

Q: What about the relative viability ([10]; first compound 8 µM) of the same molecule?
A: Its relative viability is 0.605.

Q: And the relative viability ([11]; first compound 0.08 µM)?
A: Its relative viability is 0.307.

Q: What about the relative viability ([11]; first compound 0.253 µM) of the same molecule?
A: Its relative viability is 0.326.

Q: What about the relative viability ([11]; first compound 0.8 µM) of the same molecule?
A: The relative viability was 0.328.

Q: And the relative viability ([11]; first compound 2.53 µM)?
A: Its relative viability is 0.214.

Q: And the relative viability ([11]; first compound 8 µM)?
A: Its relative viability is 0.188.
